Measured values: patent US20230118467A1, “COSMETIC OR PHARMACEUTICAL USE OF AVENANTHRAMIDE L” (priority 2020, published 2023)
Values joined by “and” are separate entries in the source; they are usually repeats but may differ in a detail not shown here. Equal entries are not always repeated. Where two headings read alike, the source gives them in different places.

Assays:
CRYAB = experiment: Gene expression in neonatal human epidermal keratinocytes (real-time PCR): CRYAB; format: cell-based; settings: 100 μM, 24 hours, nHEK, vs DMSO vehicle, RQ ≥2.0 relevant
Procedure: (§1) Neonatal human epidermal keratinocytes (nHEK) were cultivated in an EpiLife® medium (Gibco) including an HKGS kit (Gibco) with 5% C02 at 37° C. in accordance with the supplier's instructions.
(§2) The cells were treated for 24 hours, with the test compounds dissolved in DMSO and DMSO alone as the vehicle control. Genomic target expression levels in treated cells were measured using a quantitative Real-Time PCR comparison to vehicle control treatment.
(§3) RNA was isolated using Qiagen's RNeasy® Mini Kit. The total RNA concentrations were measured using Eppendorf's pCuvetteG 1.0 and BioPhotometer, by measuring the absorption at 260 nm. Purity control values such as E260/280 and E260/230 were calculated simultaneously. Reverse transcription was performed using the high-capacity RNA-to-cDNA kit of Applied Biosystems, in accordance with the supplier's instructions. Samples were treated in Biometra's PCR Thermocycler.
(§4) For fast real-time PCR, the cDNA was diluted with RNase-free water, and the TaqMan™ Fast Universal PCR Master Mix of Applied Biosystems was used.
(§5) Quantitative real-time PCR was performed using the StepOnePlus fast real-time PCR instrument by Applied Biosystems. Analysis was conducted using the StepOne software and 2^−ΔΔct method (normalised to endogenous control […] expression).
(§6) For upregulations, RQ values ≥2.0 are considered to be relevant.

[1] = Oxidative stability (Oxipress) of avenanthramides in solution; settings: for Content after treatment: 5 bars of oxygen at 70° C. for 24 hours; for Content before treatment: HPLC
Procedure: (§8) Stability under exposure to oxygen and temperature was evaluated for dissolved pure avenanthramides in aqueous ethanolic solution, both alone and as an avenanthramide mixture.
(§9) Avenantharmide mixtures used were DragoCalm® (Symrise; INCI Name: Aqua, Glycerin, Avena Sativa Kernel Extract) or DragoCalm® SP (Symrise; INCI Name: Aqua, Glycerin, Pentylene Glycol, Avena Sativa Kernel Extract).
(§10) The liquids were either exposed to 5 bars of oxygen at 70° C. for 24 hours using the Oxipress device or stored for 2 and 4 weeks at 40° C. in a heating cabinet.
(§11) The content of Avns was determined by HPLC, and the colour was measured by colorimetry (Hach Lange Lico 690 instrument) before and after treatment.
(§12) Color can be determined using the CIELAB color model which is based on an opponent color system. CIELAB indicates the color by values on three axes: L*, a*, and b* with dimension L for lightness and a* and b* for the color-opponent dimensions red/green and yellow/blue, based on nonlinearly compressed coordinates. The L* axis extends from black (0) to white (100), the a* axis from green (−a) to red (+a) and the b* axis from blue (−b) to yellow (+b).
(§13) The difference of 2 colors ΔE can be calculated using the following equation:
(§14) ΔEp,v=√{square root over ((Lp*−Lv*)^2+(ap*−av*)^2+bp*−bv*)^2)}
(§15) A difference of ΔE of 0.5-1 can be visually observed by a trained evaluator by naked eye. A difference of 2-4 can be observed visually also by a non-trained evaluator.

[2] = 24 h
Procedure: as §8, §9, §10, §11, §12, §13, §14, §15

[3] = Radical-scavenging activity (ABTS assay); format: biochemical; settings: absorption at 734 nm
Source text: The ABTS assay measures the relative ability of antioxidants to scavenge the ABTS radical generated in aqueous phase, as compared with a Trolox (water-soluble vitamin E analogue) standard. The green-blue stable radical cationic chromophore 2,2′-azino-bis(3-ethylbenzothiazoline-6-sulphonate) (ABTS^•+) is generated by reaction with the ABTS salt using a strong oxidising agent (for example potassium permanganate or potassium persulphate) and has absorption maxima at 414, 645, 734 and 815 nm. The reduction of the blue-green ABTS radical by hydrogen-donating antioxidants is measured by the suppression of its characteristic long wave absorption spectrum.
With the aid of the ABTS assay, the antioxidative capacity of Avn L and Avn A were evaluated and compared.
2,2′-azino-bis-(3-ethylbenzothiazoline-6-sulphonic acid) (ABTS) was transformed into the blue-green radical cation ABTS^•+ using potassium persulphate. Through the addition of [6]-paradol and alpha-tocopherol, the radical cations were reduced and discoloration was observed, as determined photometrically by absorption at 734 nm. Inhibition of radical formation in the test substance is calculated by the following formula: […]
where • Atest substance is the absorption in the wells with the test substance including [6]-paradol and alpha-tocopherol • Acontrol is the absorption in the wells with no test substance.
Values for IC50 (the concentration at which radical formation is inhibited by 50%) were calculated from the inhibition of radical formation [%] in a series of dilutions of tested samples.

tachykinin NK1 receptor = target: T1, tachykinin NK1 receptor (Homo sapiens, UniProt P25103); experiment: NK1 receptor inhibition study, radioligand binding assay ([3H] Substance P); settings: read-out: Percent inhibition of specific binding to the tachykinin NK1 receptor
T1 construct: expressed in transfected cells; host or cells: CHO cells
T1 sequence (P25103 whole entry): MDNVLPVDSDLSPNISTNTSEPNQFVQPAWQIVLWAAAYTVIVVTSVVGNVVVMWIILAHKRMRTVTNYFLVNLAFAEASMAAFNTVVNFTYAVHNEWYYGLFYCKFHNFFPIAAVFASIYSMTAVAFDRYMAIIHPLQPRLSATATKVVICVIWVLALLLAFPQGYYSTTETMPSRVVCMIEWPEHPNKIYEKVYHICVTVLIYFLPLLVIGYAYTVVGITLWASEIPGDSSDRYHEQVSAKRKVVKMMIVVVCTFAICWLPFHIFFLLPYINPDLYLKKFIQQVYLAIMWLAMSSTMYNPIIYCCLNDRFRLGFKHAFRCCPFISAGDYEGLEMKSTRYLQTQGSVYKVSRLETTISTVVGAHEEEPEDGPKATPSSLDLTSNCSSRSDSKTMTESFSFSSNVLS
Procedure: The inhibition activity of avenanthramide L versus dihydroavenanthramide D and the structurally related avenanthramides A and D was evaluated in a radioligand binding assay.
The method employed in this study was adapted from the scientific literature so as to maximise reliability and reproducibility. Reference compound L-703,606 was run as an integral part of each experiment, to ensure the validity of the results obtained. The assay was performed under the conditions described in the following respective method.
Source: Human recombinant CHO cells
Incubation time/temperature: 90 minutes at 4° C. Incubation buffer: 20 mM HEPES, pH 7.4, • 1 mM MnCl2 • 0.1% BSA
Ligand: 0.80 nM [3H] Substance P
Non-specific ligand: 10.0 μM L-703,606 oxalate salt (CAS 144425-84-3) Specific binding: 90% Significance criteria: ≥50% of max. stimulation or inhibition Bmax: 1.70 pmol/mg protein
In another experiment, the inhibitory activity of a combination of avenanthramide L and another avenanthramide was evaluated in comparison to both substances alone in the radioligand binding assay as described in Example 1 to investigate a potential synergism.

HSP90AB1 = experiment: Gene expression in neonatal human epidermal keratinocytes (real-time PCR): HSP90AB1; format: cell-based; settings: 100 μM, 24 hours, nHEK, vs DMSO vehicle, RQ ≥2.0 relevant
Procedure: as §1, §2, §3, §4, §5, §6

[4] = Temperature stability at 40° C. of avenanthramide mixture in solution; format: physicochemical
Source text: with p=sample 1 and v=sample 2

HSP90AA1 = experiment: Gene expression in neonatal human epidermal keratinocytes (real-time PCR): HSP90AA1; format: cell-based; settings: 100 μM, 24 hours, nHEK, vs DMSO vehicle, RQ ≥2.0 relevant
Procedure: as §1, §2, §3, §4, §5, §6

CD44 = experiment: Gene expression in neonatal human epidermal keratinocytes (real-time PCR): CD44; format: cell-based; settings: 100 μM, 24 hours, nHEK; RQ ≥2.0 relevant; listed as avenanthramide L
Procedure: as §1, §2, §3, §4, §5
(§7) For upregulations, RQ values ≥2.0 are considered to be relevant. […]

HPRT1 (housekeeping) = experiment: Gene expression in neonatal human epidermal keratinocytes (real-time PCR): HPRT1; format: cell-based; settings: 100 μM, 24 hours
Procedure: as §1, §2, §3, §4, §5, §7

BLVRB = experiment: Gene expression in neonatal human epidermal keratinocytes (real-time PCR): BLVRB; format: cell-based; settings: 100 μM, 24 hours, nHEK; RQ ≥2.0 relevant; listed as avenanthramide L
Procedure: as §1, §2, §3, §4, §5, §7

[5] = Avn in mixture DragoCalm SP (glycerin/water)
[6] = single Avn in aqueous ethanolic solution (0.01 wt %)
[7] = Avn in mixture DragoCalm (glycerin/water)

Structure (SMILES): O=C(/C=C/C=C/c1ccc(O)cc1)Nc1ccc(O)cc1C(=O)O [Avn L, 5-hydroxy-2-[(2E,4E)-5-(4-hydroxyphenyl)penta-2,4-dienamido]benzoic acid]
- RQ value, CRYAB (CRYAB): 2.1 and 1.6
- RQ value, CRYAB (CRYAB; listed as avenanthramide L): upregulates
- Content after treatment [1, 5]: 7 ppm
- Content before treatment [1, 5]: 8 ppm
- Content after treatment [1, 6]: 100 ppm
- Content before treatment [1, 6]: 103 ppm
- ΔE (colour difference, CIELAB) ([1]; single Avn in aqueous ethanolic solution (0.01 wt %), before vs after 5 bars of oxygen at 70° C. for 24 hours): 0.6
- Degradation in % [2]: 13%
- Degradation in % ([2]; 0.01 wt %): 3%
- Mean antioxidant activity (inhibition of radical formation) ([3]; 5 μM): 40 ± 4%
- Mean antioxidant activity (inhibition of radical formation) ([3]; 5 μM, listed as Avenanthramide L): at least 40%
- Mean antioxidant activity (inhibition of radical formation) ([3]; 10 μM): 74 ± 4%
- Mean antioxidant activity (inhibition of radical formation) ([3]; 10 μM, listed as avenanthramide L): at least 70%
- inhibition at 0.1 ppm (tachykinin NK1 receptor; test concentration 0.1 ppm): 9%
- inhibition at 1 ppm (tachykinin NK1 receptor; test concentration 1 ppm): 15%
- inhibition at 10 ppm (tachykinin NK1 receptor; test concentration 10 ppm): 20%
- inhibition at 100 ppm (tachykinin NK1 receptor; test concentration 100 ppm): 42%
- inhibition at 125 ppm (tachykinin NK1 receptor; test concentration 125 ppm (Example 7)): 37%
- RQ value, HSP90AB1 (HSP90AB1): 0.4 and 0.5
- RQ value, HSP90AB1 (HSP90AB1; listed as avenanthramide L): no effect
- Content after 2 weeks at 40° C. [4, 7]: 11 ppm
- Content after 4 weeks at 40° C. [4, 7]: 10 ppm
- Content before treatment ([4]; Avn in mixture DragoCalm (glycerin/water), HPLC): 11 ppm
- Degradation in % ([4]; Avn in mixture DragoCalm, after 4 weeks at 40° C.): 9%
- RQ value, HSP90AA1 (HSP90AA1): 0.9
- RQ value, HSP90AA1 (HSP90AA1; listed as avenanthramide L): no effect
- RQ value, CD44 (CD44): upregulates
- RQ value, HPRT1 (housekeeping) (HPRT1 (housekeeping); nHEK (Example 4 gene array)): 1.0
- RQ value, HPRT1 (housekeeping) (HPRT1 (housekeeping); nHEK, vs DMSO vehicle (Example 3)): 1.0
- RQ value, BLVRB (BLVRB): upregulates
